A short description of data set [1]: Partition coefficient, logP of compound. The class given is physicochemical. The conditions noted are these: octanol/water.
The nature of data set [2]: Distribution coefficient, logD of compound. The class given is physicochemical. The note with it: octanol/water.
A short description of data set [3]: Drug accumulation in tumor to muscle of BALB/c mouse implanted with mouse 4T1 cells at 0.5 mg/kg, iv measured at 4 to 168 hrs. The note with it: in vivo, time 4-168 hrs. The class given is ADME, organism-based.
A short description of data set [4]: Photostability of compound in DMSO-H2O incubated for 1 hr irradiated with deuterium lamp by absorbance based analysis. The note with it: read-out: Stability. The class given is physicochemical.
The test system of the next data set is NCI-H226. In words: Cytotoxicity against human NCI-H226 assessed as decrease in cell viability up to 10 uM incubated for 24 hrs by CCK-8 assay. Type of data set: functional, cell-based.
The nature of data set [5]: Solubility of compound in DMSO-H2O. Type of data set: physicochemical.
The nature of data set [6]: Ratio of drug level in tumor to muscle of BALB/c mouse implanted with mouse 4T1 cells at 0.5 mg/kg, iv measured at 12 to 24 hrs. Type of data set: ADME, organism-based. The note with it: in vivo, time 12-24 hrs.
Data set [7] is described as follows: Drug uptake in human NCI-H226 cells assessed as increase in red fluorescence intensity at 5 uM incubated for 30 mins by CY7 staining based microscopic analysis. Type of data set: ADME, cell-based. The conditions noted are these: nci-h226, 0.5 h.
A short description of data set [8]: Drug uptake in human NCI-H226 cells assessed as increase in green fluorescence intensity at 5 uM incubated for 30 mins by F-actin staining staining based microscopic analysis. Type of data set: ADME, cell-based. The note with it: nci-h226, 0.5 h.
Data set [9] can be described thus: Drug uptake in mouse 4T1 cells assessed as increase in red fluorescence intensity at 5 uM incubated for 30 mins by CY7 staining based microscopic analysis. The class given is ADME, cell-based. The conditions noted are these: 4t1, 0.5 h.
Data set [10] is described as follows: Drug uptake in mouse 4T1 cells assessed as increase in green fluorescence intensity at 5 uM incubated for 30 mins by F-actin staining staining based microscopic analysis. The class given is ADME, cell-based. The conditions noted are these: 4t1, 0.5 h.

Molecules are shown by their SMILES. Active and inactive are the calls of the source. The rule behind the calls is not given here.

For the molecule `COC(=O)CNC(=O)c1ccc(CN2/C(=C/C=C3\CCCC(/C=C/C4=[N+](Cc5ccc(C(=O)NCC(=O)OC)cc5)c5ccc6ccccc6c5C4(C)C)=C3Cl)C(C)(C)c3c2ccc2ccccc32)cc1.[Br-]`, the logP in data set [1] is 7.23. In [2], this molecule gave a logD of 5.6. The Drug uptake entry in [3] is recorded as “Active”.

`CC(C)(C)OC(=O)Nc1ccc2c(c1)C(C)(C)C(/C=C/C1=C(Cl)C(=C/C=C3/N(Cc4ccc(C(=O)O)cc4)c4ccc(NC(=O)OC(C)(C)C)cc4C3(C)C)/CCC1)=[N+]2Cc1ccc(C(=O)O)cc1` yielded a logP in data set [1] of 6.92. In [2], this molecule registered a logD of 3.78.

With `CC1(C)C(/C=C/C2=C(Cl)C(=C/C=C3/N(CCOc4ccccc4C(=O)O)c4ccc5ccccc5c4C3(C)C)/CCC2)=[N+](CCOc2ccccc2C(=O)O)c2ccc3ccccc3c21`, the logP in data set [1] stood at 7.27. In [2], this molecule yielded a logD of 3.73.

`CC1(C)C(/C=C/C=C/C=C/C=C2\N(CCCCS(=O)(=O)O)c3ccc4ccccc4c3C2(C)C)=[N+](CCCCS(=O)(=O)[O-])c2ccc3ccccc3c21` [INDOCYANINE GREEN]: in data set [4], the remaining at 1 h came out at 95.2%. Moreover, the outcome in the data set with NCI-H226 was Active.

For `CC1(C)C(/C=C/C2=C(Cl)C(=C/C=C3/N(CCCCCC(=O)O)c4ccccc4C3(C)C)/CCC2)=[N+](CCCOc2ccc(C(=O)O)cc2)c2ccccc21.[Br-]`, the concentration in solution in data set [5] (solubility) was 170 µg/mL. In addition, the logP in [1] was 5.9. In data set [2], this molecule displayed a logD of 4.23. The Drug uptake result in data set [3], in [7], in data set [8], in data set [9] and in [10] was “Active” throughout. The Ratio in [6] was above 5.

In [5], `CC1(C)C(/C=C/C=C/C=C/C=C2/N(CCCOc3ccc(C(=O)O)cc3)c3ccc4ccccc4c3C2(C)C)=[N+](CCCOc2ccc(C(=O)O)cc2)c2ccc3ccccc3c21.[Br-]` displayed a solubility of 170 µg/mL. The same molecule came in with a logP in data set [1] of 7.26. The molecule also had a logD in [2] of 3.79.

In the case of `CC1(C)C(/C=C/C2=C(Cl)C(=C/C=C3/N(CCCOc4ccc(C(=O)O)cc4)c4ccc5ccccc5c4C3(C)C)/CCC2)=[N+](CCCOc2ccc(C(=O)O)cc2)c2ccc3ccccc3c21.[Br-]`, in data set [1], the logP worked out at 7.24. The same molecule returned a logD in [2] of 4.19. For the same molecule, the Drug uptake entry in data set [3] is reported as “Active”.

`CCN1/C(=C/C=C2\CCCC(/C=C/C3=[N+](Cc4ccc(C(=O)O)cc4)c4ccccc4C3(C)C)=C2Cl)C(C)(C)c2ccccc21.[Br-]` registered a logP in [1] of 5.89. Further, the logD in data set [2] came to 4.24. Further, the Drug uptake entry in [3] is reported as “Active”; in data set [7], “Not_active”; in data set [8], “Not_active”; in data set [9], “Not_active”; in data set [10], “Not_active”.

The molecule `Cc1ccc2c(c1)C(C)(C)C(/C=C/C1=C(Cl)C(=C/C=C3/N(Cc4ccc(C(=O)O)cc4)c4ccc(C)cc4C3(C)C)/CCC1)=[N+]2Cc1ccc(C(=O)O)cc1.[Br-]` registered a logP in [1] of 6.14. Moreover, in data set [2], the logD turned out to be 4.74. In addition, the Drug uptake result in data set [3] is “Active”.

Turning to `CC1(C)C(/C=C/C2=C(Cl)C(=C/C=C3/N(Cc4ccc(C(=O)O)cc4)c4ccc(N)cc4C3(C)C)/CCC2)=[N+](Cc2ccc(C(=O)O)cc2)c2ccc(N)cc21`, the logP in data set [1] was 5.6. Also, the logD in [2] is 3.22.

The molecule `COC(=O)CNC(=O)CCN1/C(=C/C=C2\CCCC(/C=C/C3=[N+](CCC(=O)NCC(=O)OC)c4ccc5ccccc5c4C3(C)C)=C2Cl)C(C)(C)c2c1ccc1ccccc21` gave a logP in data set [1] of 6.18. The molecule further showed a logD in data set [2] of 3.39.

In turn, `COC(=O)CCC(=O)CNC(=O)c1ccc(CN2/C(=C/C=C3\CCCC(/C=C/C4=[N+](Cc5ccc(C(=O)NCC(=O)CCC(=O)OC)cc5)c5ccccc5C4(C)C)=C3Cl)C(C)(C)c3ccccc32)cc1.[Br-]` showed a logP in data set [1] of 6.17. Moreover, the logD in data set [2] amounted to 4.48. Further, the Drug uptake entry in data set [3], in [7], in data set [8], in data set [9] and in [10] was “Active” in each case. Also, the Ratio in [6] is on record as above 5.

Turning to `CC1(C)C(/C=C/C=C/C=C/C=C2/N(Cc3ccc(C(=O)O)cc3)c3ccc4ccccc4c3C2(C)C)=[N+](Cc2ccc(C(=O)O)cc2)c2ccc3ccccc3c21.[Br-]`, the concentration in solution in [5] (solubility) was 170 µg/mL. In data set [1], this molecule gave a logP of 7.06. The molecule further registered a logD in data set [2] of 3.59.

`COC(=O)CNC(=O)c1ccc(OCCC[N+]2=C(/C=C/C3=C(Cl)C(=C/C=C4/N(Cc5ccc(C(=O)O)cc5)c5ccccc5C4(C)C)/CCC3)C(C)(C)c3ccccc32)cc1.[Br-]` came in with a logP in data set [1] of 6.18. Also, the logD in data set [2] was 4.3. Besides, the Drug uptake result in data set [3], in data set [7], in data set [8], in data set [9] and in data set [10] was “Active” in each case. Also, the Ratio in [6] is above 5.

On to `COC(=O)C(C)NC(=O)CCN1/C(=C/C=C2\CCCC(/C=C/C3=[N+](CCC(=O)NC(C)C(=O)OC)c4ccccc4C3(C)C)=C2Cl)C(C)(C)c2ccccc21` (stereo not drawn), for which, in data set [1], the logP was 5.36. Further, in data set [2], the logD stood at 3.92.

In data set [1], `COC(=O)CCC(=O)CNC(=O)c1ccc(CN2/C(=C/C=C3\CCCC(/C=C/C4=[N+](Cc5ccc(C(=O)NCC(=O)CCC(=O)OC)cc5)c5ccc6ccccc6c5C4(C)C)=C3Cl)C(C)(C)c3c2ccc2ccccc32)cc1.[Br-]` displayed a logP of 7.21. Besides, in [2], the logD was found to be 5.28. The Drug uptake result in data set [3] is recorded as “Active”.

In data set [1], `COC(=O)CNC(=O)c1ccc(OCCCN2/C(=C/C=C3\CCCC(/C=C/C4=[N+](CCCOc5ccc(C(=O)NCC(=O)OC)cc5)c5ccc6ccccc6c5C4(C)C)=C3Cl)C(C)(C)c3c2ccc2ccccc32)cc1.[Br-]` had a logP of 7.45. The molecule also had a logD in data set [2] of 5.51. Also, the Drug uptake entry in [3] is listed as “Active”.

The molecule `Cc1ccc2c(c1)C(C)(C)C(/C=C/C1=C(Cl)C(=C/C=C3/N(CCCOc4ccc(C(=O)O)cc4)c4ccc(C)cc4C3(C)C)/CCC1)=[N+]2CCCOc1ccc(C(=O)O)cc1.[Br-]` had a logP in data set [1] of 6.41. In addition, the logD in data set [2] worked out at 4.02. Further, in [3], the Drug uptake entry is “Active”.

(Values after ChEMBL document CHEMBL6134863, “Novel Mitochondria-Targeted Asymmetric Heptamethine Cyanine Dye for Cancer Targeted NIR Imaging and Potent Necrosis and Senescence Induction with Prolonged Retention” (J Med Chem, 2025).)
